Converted amounts (≈) assume the structure as drawn.
Legend:
heparinase = target: T1, heparinase (Pedobacter heparinus, UniProt Q05819); experiment: Inhibition of heparinase (heparin / antithrombin III / factor Xa chromogenic assay); format: biochemical, Flavobacterium heparinum
T1 construct: the heparinase was isolated from Flavobacterium heparinum; purchased Sigma Co. Ltd. (U.S.A.); host or cells: isolated from Flavobacterium heparinum
Method: To 17 μL of reaction buffer (14 mM sodium acetate and 1.4 mM CaCl2, pH 7.0) containing 10 ng of heparin were added 3 μL of test sample along with 0.2 unit of heparinase and placed at room temperature for 15 min. Then, 25 μL of antithrombin III solution was added and allowed to react for 2 min at room temperature and added with 25 μL of factor Xa solution. In one minute, 25 μL of factor Xa substrate was added to react for 5–10 min and then terminated the reaction by adding 25 μL of glacial acetic acid. The light absorbency was measured at 410 nm. The rate of enzyme inhibition was calculated as in the following equation 1, wherein IC50 was the concentration of the inhibitor when the rate of enzyme inhibition reached 50%. Inhibition (%)=(A−C)/(A−B)×100 [Equation 1]
In the above equation 1, A represents the light absorbance of the reagent after reaction when the inhibitor was not added, B represents the light absorbance of the reagent after reaction when enzyme solution was not added, and C represents the light absorbance of the reagent after reaction when the inhibitor was added.
The heparinase used in this experiment was purchased from Sigma Co. Ltd. (U.S.A.), wherein the heparinase was isolated from Flavobacterium heparinum.

B16 melanoma cells = experiment: Invasion of B16 melanoma cells (Matrigel invasion); format: cell-based; conditions: for Relative Rate of Invasion (%): control 100; for No. of Cells Invaded: control 420.7 ± 15.6
Method: MT70646 (KCTC 0916BP) against the invasion of B16 melanoma cells through the synthetic basal membranes. […]
BioCoat invasion chamber (precoated Matrigel) was swelled for 30 min by serum-free DMEM and the chamber was placed into the well of 24 well plate which contains 600 μL of HT 1080 conditioned medium. And then 450 μL of melanoma cell suspension (4.5×10^3 cells) in DMEM medium containing 0.5% albumin was added into the chamber. After adding 50 μL of test sample, the chamber was incubated for 22–24 hr at 37° C. in a 5% CO2 atmosphere. And the filter of chamber was detached and fixed with methanol. After staining the filter with 5% crystal violet and the cells on the upper surface of the filters were removed by wiping them with a cotton swab. The cells invaded through the Matrigel and filter to the lower surface were counted under a microscope.

Solubility in solvents = format: physicochemical
Source text: The results of infrared (IR) absorption spectrum; ^1H-NMR and ^13C-NMR spectrum; and HMBC NMR spectrum analyses are shown in the Tables 2 & 3 and FIGS. 1–3.

[1] = system: human umbilical vein enothelial cell (HUVEC); experiment: Angiogenesis: HUVEC tube formation on Matrigel; format: cell-based; conditions: 18 hr, read-out: Inhibitory activity against the angiogenesis (tube formation); for inhibition at 1 µg/mL: 1 μg/mL; for inhibition at 3 µg/mL: 3 μg/mL; for inhibition at 10 µg/mL: 10 μg/mL
Method: After thawing Matrigel on ice, 40 μL of the Matrigel was added into each wells of a 96 well plate and placed for 30 min at 37° C. to solidify the Matrigel. Then, 180 μL of human umbilical vein enothelial cell (HUVEC) suspension (2×10^4 cells) was added made into each well of the solidified Matrigel and incubated for 18 hr in a 5% CO2 atmosphere at 37° C. The degree of tube formation was observed by microscope.

[2] = target: T2, heparanase derived from human platelets (Homo sapiens, UniProt Q9Y251); experiment: Inhibition of heparanase (3H-heparan sulfate degradation); format: biochemical; conditions: 10 ng heparanase, 30 min at 37° C., pH 5.1; read-out: IC50 against heparanase
T2 construct: 10 ng of heparanase derived from human platelets; from tissue; host or cells: human platelets
T2 sequence (Q9Y251 158-543 limits assumed): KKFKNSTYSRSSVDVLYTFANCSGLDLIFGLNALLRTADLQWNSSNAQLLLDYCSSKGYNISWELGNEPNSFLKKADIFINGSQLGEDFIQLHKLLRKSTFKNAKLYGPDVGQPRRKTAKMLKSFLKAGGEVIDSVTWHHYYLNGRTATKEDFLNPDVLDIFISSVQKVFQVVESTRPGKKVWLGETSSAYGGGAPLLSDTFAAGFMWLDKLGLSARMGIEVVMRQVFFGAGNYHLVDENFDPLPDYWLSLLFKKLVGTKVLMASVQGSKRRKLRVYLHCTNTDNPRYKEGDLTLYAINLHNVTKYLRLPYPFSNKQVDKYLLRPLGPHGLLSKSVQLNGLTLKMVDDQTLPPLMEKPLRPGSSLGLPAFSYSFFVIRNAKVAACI
T2 sequence (Q9Y251 36-109 limits assumed): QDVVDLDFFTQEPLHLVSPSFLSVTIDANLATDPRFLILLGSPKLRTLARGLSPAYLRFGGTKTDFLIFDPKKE
Source text: After the reaction, the reaction mixture was passed through a column filled with HRG-Sepharose beads and eluted out the degraded heparan sulfate by heparanase to measure the radioactivity.

T1 sequence (Q05819 22-384): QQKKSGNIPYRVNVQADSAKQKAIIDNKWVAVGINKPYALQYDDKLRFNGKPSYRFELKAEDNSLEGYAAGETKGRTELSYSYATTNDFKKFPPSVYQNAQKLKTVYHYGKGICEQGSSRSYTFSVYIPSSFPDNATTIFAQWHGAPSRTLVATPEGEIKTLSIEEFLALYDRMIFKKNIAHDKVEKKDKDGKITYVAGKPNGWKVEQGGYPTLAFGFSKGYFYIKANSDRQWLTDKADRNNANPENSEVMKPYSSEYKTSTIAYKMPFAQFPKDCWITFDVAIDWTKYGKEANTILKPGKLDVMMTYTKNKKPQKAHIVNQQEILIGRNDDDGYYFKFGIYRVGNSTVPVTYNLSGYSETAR

| Structure (SMILES) | IC50 (heparinase) | Relative Rate of Invasion (%) (B16 melanoma cells; 1 μg/mL) | No. of Cells Invaded (B16 melanoma cells; 1 μg/mL) | Relative Rate of Invasion (%) (B16 melanoma cells; 3 μg/mL) | No. of Cells Invaded (B16 melanoma cells; 3 μg/mL) | Relative Rate of Invasion (%) (B16 melanoma cells; 10 μg/mL) | No. of Cells Invaded (B16 melanoma cells; 10 μg/mL) | inhibition at 10 µg/mL (B16 melanoma cells; Mus musculus, B16, 10 μg/mL, read-out: Inhibitory activity against invasion) | IC50 (B16 melanoma cells; Mus musculus, B16, estimated from Table 4, read-out: IC50 against invasion of B16 melanoma cells) | Physicochemical properties (comparison) (Solubility in solvents) | inhibition at 1 µg/mL [1] | inhibition at 3 µg/mL [1] | inhibition at 10 µg/mL [1] | Solubility in ethanol, butanol, dimethyl sulfoxide (DMSO) (Solubility in solvents) | Solubility in water, hexane and chloroform (Solubility in solvents) | IC50 [2] |
| --- | --- | --- | --- | --- | --- | --- | --- | --- | --- | --- | --- | --- | --- | --- | --- | --- |
| CCCCCCCCCCCCCCCc1cc(OC2OC(C(=O)OC)C(O)C(O)C2O)cc(O)c1C(=O)Oc1cc(C)c(C(=O)O)c(O)c1 (single isomer, unassigned) [CRM646-B] | 25 µM | 89.5% | 376.7 ± 19.7 | 36.9% | 155.3 ± 18.6 | 13.3% | 56.0 ± 8.9 | > 80% | ~2 µg/mL (≈ 2.84 µM) | almost same as in the compound CRM646-A | < 30% | 30% | 60% |  |  |  |
| CCCCCCCCCCCCCCCc1cc(OC2OC(C(=O)O)C(O)C(O)C2O)cc(O)c1C(=O)Oc1cc(C)c(C(=O)O)c(O)c1 (centres unmarked) [CRM646-A] | 3 µM | 100.1% | 421.0 ± 15.6 | 91.4% | 384.4 ± 9.4 | 71.5% | 300.8 ± 10.2 |  |  |  | < 30% | < 30% | 30% | well dissolved | not dissolved easily | 10 µM |
